ChEMBL document CHEMBL1130434, “Simultaneous pharmacokinetic screening of a mixture of compounds in the dog using API LC/MS/MS analysis for increased throughput” (J Med Chem, 1997)

Experiments:
[1] = Elimination half-life of compound when administered intravenously as a mixture (five-in-one dose) to a single dog.; type: ADME, organism-based; conditions: in vivo, iv
[2] = Elimination half-life of compound when administered intravenously as an individual dose to a single dog.; type: ADME, organism-based; conditions: in vivo, iv
[3] = Clearance of compound when administered intravenously as a mixture (five-in-one dose) to a single dog.; type: ADME, organism-based, Canis lupus familiaris; conditions: in vivo, iv
[4] = Steady-state volume of distribution of compound when administered intravenously as a mixture (five-in-one dose) to a single dog.; type: ADME, organism-based, Canis lupus familiaris; conditions: in vivo, iv, read-out: Vss
[5] = Steady-state volume of distribution of compound when administered intravenously as an individual dose to a single dog.; type: ADME, organism-based, Canis lupus familiaris; conditions: in vivo, iv, read-out: Vss
[6] = Clearance of compound when administered intravenously as an individual dose to a single dog.; type: ADME, organism-based, Canis lupus familiaris; conditions: in vivo, iv

SMILES | half-life [1] [h] | half-life [2] [h] | clearance [3] [mL/min/kg] | Vd [4] [L/kg] | Vd [5] [L/kg] | clearance [6] [mL/min/kg]
CNC(=O)CN(C)S(=O)(=O)c1cc(CCN2CCC(c3nc(COCC(F)(F)F)c(-c4ccc(F)cc4)o3)CC2)ccc1OC | 3 | 3.4 | 11.2 | 2.86 | 2.91 | 11.6
CNC(=O)CN(C)S(=O)(=O)c1cc(CCN2CCC(c3nc(COCC(F)(F)F)c(-c4ccccc4)o3)CC2)ccc1OC | 2.4 | 2.1 | 17.3 | 2.76 | 3.46 | 28.9
COc1ccc(CCN2CCC(c3nc(COCC(F)(F)F)c(-c4ccccc4)o3)CC2)cc1S(=O)(=O)NCCNC(C)=O | 2.9 | 2.6 | 18.7 | 2.83 | 0.6 | 10.3
COc1ccc(CCN2CCC(c3nc(COCC(F)(F)F)c(-c4ccccc4)o3)CC2)cc1S(N)(=O)=O | 1.5 | 1.4 | 5.9 | 0.473 | 0.382 | 5
COc1ccc(CCN2CCC(c3nc(COCC(F)(F)F)c(-c4ccc(F)cc4)o3)CC2)cc1S(N)(=O)=O | 4.9 | 4.2 | 0.86 | 0.33 | 0.243 | 0.9
